Assay results published in patent publication US9526793B1, “Salts of phenylethylamines and inorganic acids and methods of use thereof” (priority 2013, dated 2016).
Read-outs that look alike come from different tables or passages of the source.

Key:
[1] = Subject-reported duration of euphoria and of vasodilation (drop in systolic blood pressure, sphygmomanometer); type: in vivo, human; conditions: 600 mg oral capsule
Protocol: (§1) Solid dose capsules (size “00”, gelatin) were prepared containing either 600 mg of 2-phenylethylamine nitrate or equimolar quantities of an admixture of 2-phenylethylamine HCl and sodium nitrate (NaNO3). A placebo filled with an inert substance (200 mesh guar gum) was also prepared. The subject was given a single capsule containing 2-phenylethylamine nitrate, an admixture of 2-phenylethylamine HCl and NaNO3, or the placebo.
The subject estimated that the effect of the 2-phenylethylamine nitrate lasted substantially longer than the effect of the admixture. For example, the 2-phenylethylamine nitrate produced a sense of euphoria that typically lasted 50% longer than that experienced with the admixture.

[2] = Length of time the subject maintained a 5.5 mph pace on an elliptical trainer (athletic performance); type: in vivo, human; conditions: single oral capsule, 600 mg 2-phenylethylamine nitrate or equimolar admixture
Protocol: as §1
After oral administration of the compound, the subject's ability to maintain a speed of about 5.5 mph on an elliptical trainer was measured. The length of time was recorded before the subject became fatigued and was no longer able to maintain this pace (see Table 1). Athletic performance was measured at times soon after administration of the compound before the subject had engaged in significant physical activity that day (at about 9:30 am each day). The subject was blinded to the identity of the capsules.

[3] = Sexual performance of the subject (penile erectile genesis and maintainability); type: in vivo, human; conditions: single oral capsule
Protocol: Solid dose capsules were prepared as described in Example 3. The subject was given a single capsule containing 2-phenylethylamine nitrate, an admixture of 2-phenylethylamine HCl and NaNO3, or a placebo.
Sexual performance was evaluated in the subject by the relative length of time and number of times they were able to maintain an erection and engage in sexual intercourse (i.e., penile erectile genesis and maintainability) with their partner during a given period.

[4] = Clinical observation of onset and duration of athletic performance-enhancing effects after oral dose; type: in vivo
[5] = Tolerability of daily oral doses; type: in vivo
[6] = cited from earlier work
[7] = as measured using the HCl salt; cited from earlier work

Structure (SMILES)	Duration of vasodilation versus the admixture ([1]; measured by drop in systolic blood pressure)	Sense of euphoria: duration longer than that experienced with the admixture ([1]; subject's estimate, versus admixture)	Percent Improvement Compared to Placebo [2]	Time (Minutes) that the subject maintained a 5.5 mph pace on an elliptical ([2]; average of several occasions)	Sexual performance after administration ([3]; compared with admixture or placebo)	Reduction of refractory time between erections ([3]; subject, self-reported)	Time to clinically observable athletic performance-enhancing effects after ingestion ([4]; single dose of 0.100 grams to 0.600 grams)	Time for which athletic performance-enhancing effects are clinically observable ([4]; single, oral dose as low as 0.200 grams)	Daily oral dose tolerated without significant side effects [5]	half-life ([6]; in vivo)	Increase of brain levels when taking an MAO inhibitor ([6]; initial 2-phenylethylamine brain concentration low)	Increase of brain levels when taking an MAO inhibitor ([6]; initial concentration high)	pKb [7]
NCCc1ccccc1.O=[N+]([O-])O [2-Phenylethylamine Nitrate, 2-phenylethylamine nitrate]	at least twice as long	50%	10%	66 min	surprising enhancement in their sexual performance	~35%	≤ 10 min	≤ 6 h	≤ 3.00 grams				
NCCc1ccccc1 [2-phenylethylamine]										5 to 10 min	~1000 fold	3-4 times	4.17
